# From patent US7972629B2, “Product comprising a combination of milk serum apoproteins and free fatty acids” (Westgate Biological Ltd., priority 2001, dated 2011)
# How the values were obtained:
# Assay type in all cases: cell-based
# [1] = test system: methicillin resistant Staphylococcus aureus (MRSA); test: Adhesion of MRSA to Buccal Epithelial Cells; conditions: 5 mg/ml, Diagram 11
# Method: (§1) The basis of the technique involves exposing a standardised (known) number of yeast or bacteria to a standardised substrate (number of BEC's), allowing a 60 minute incubation period for the cells to adhere and then filtering the combined population through a 10 micron nylon mesh. The mesh will retain BEC's and those yeast or bacteria adhering to them, non-adhering yeast or bacteria will be washed through, where they may be enumerated in the filtrate and expressed as a percentage of the original population not adhering; percent adherence being the inverse of this.
# Fluorescent labelling of bacteria is conducted after adhesion (on those cells in the filtrate) using fluorescent dyes such as BCECF/AM (Calbiochem Biosciences Inc., La Jolla, Calif.) and Syto 13 (Molecular Probes, Oregon, USA). Labelling methods are as described by the manufacturers of the dyes. The amount of fluorescence is measured in a fluorimeter (Fluroscan from Lab-Systems, Helsinki, Finland) and is in direct relationship to the number of bacteria present.
# (§2) The following general method may be used to measure adherence of the yeast Candida albicans to BEC and the inhibition of that adherence using the formulation of milk serum apoprotein(s) as described above. The same general method is suitable for measuring inhibition of adherence of Staphylococcus aureus to BEC's and also inhibition of adherence of Streptococcus mutans, with the exception that the substrate for Streptococcus mutans, is powdered hydroxylapatite available from Merck and used as a surrogate for dental enamel.
# MRSA is routinely sub-cultured on blood agar and a single colony is used to inoculate a tube of Oxoid Brain Heart Infusion Broth as described in Methods and Materials above. After 8 hours, the innoculum is used in growth and adhesion assays using the methodologies described above.
# MRSA adheres to BEC's, and these are used here in a manner similar to that described for Candida albicans. […] Bovine Serum Albumin is used as a ‘protein blank’ and this material has no effect on the adhesion of MRSA to BEC's.
# Streptococcus mutans = test: Adhesion of Streptococcus mutans to hydroxyapatite beads; conditions: 0.8 mg/ml; saliva coated hydroxyapatite; Diagram 13
# Excerpt: as §2
# In measuring inhibition of adherence of Streptococcus mutans, hydroxyapatite powder from Merck was used as a surrogate for dental enamel. The test procedure is as described in Methods and Materials above, with the following modifications: 1 ml of fresh culture, adjusted to an optical density of 0.1 at 600 nm, is added to 5 mg of saliva coated hydroxyapatite beads; allowed to adhere for 1 hour; and centrifuged at slow speed to sediment the hydroxyapatite with adhering bacteria. The number of bacteria remaining in the supernatant are that percentage of the original population not adhering and are expressed as a percentage of the original population; the inverse being […].
# Candida albicans = test: Adhesion of Candida albicans to Buccal Epithelial Cells (adhesion assay); conditions: 1 mg/ml; yeast pre-treated 10 minutes; Diagram 8
# Excerpt: Measurement of adhesion, and inhibition of the same, requires selection of a suitable substrate and a method of enumerating number of organisms adhering (or not) to that substrate. Most potential pathogenic organisms adhere to mucosal epithelial cells and a convenient source of a representative mucosal epithelial cell may be easily harvested from inside the cheek. Buccal epithelial cells (BEC's) are harvested by scraping the mucosal membranes in the mouth using a wooden tongue depresser as follows.
# Standard wooden tongue depressers as used in clinical examination of the mouth are wrapped, in tin foil and autoclaved. […]
# as §1, with “this. […]” for “this.”
# Both the washed BEC's and the freshly grown washed yeast cells are counted microscopically and the concentrations adjusted such that the yeast is in the order of 1×10^5 and BEC's at 1×10^3. […]
Compound,inhibition of adhesion of MRSA to Buccal Epithelial Cell [1],inhibition of adhesion of MRSA to Buccal Epithelial Cell ([1]; listed as Sodium citrate),inhibition of adhesion of Streptococcus mutans to hydroxyapatite beads (Streptococcus mutans) [%],inhibition of adhesion of Candida albicans to Buccal Epithelial Cell (Candida albicans) [%]
O=C([O-])CC(O)(CC(=O)[O-])C(=O)[O-].[Na+].[Na+].[Na+] [sodium citrate],approximately 10%,no effect on adhesion,~10,–
"Bovine Serum Albumin: protein blank in Diagrams 8, 11 and 13",no effect,–,~30,13
